Test results: patent US12377083B2 (WUHAN LL SCIENCE AND TECHNOLOGY DEVELOPMENT CO., LTD., priority 2019, dated 2025)

Tests used:
Type in all cases: cell-based
[1] = system: A2058 (human melanoma cells); assay: A2058 cell scratch (migration) assay with LPA; details: 10 μM LPA, scratch area at 24 h
Protocol: The activity of the compounds disclosed herein at the cell level in vitro is evaluated by A2058 (human melanoma cells, Beina Bio, BNCC341099) cell scratch assay. The inhibitory activity of the compounds against LPAR1 can be reflected by inhibition of cell scratch healing.
After the cell confluence reached 80%, the cell culture plate was taken out and the original medium was discarded. Serum-free medium was then added, and the cells were starved overnight in an incubator (37° C., 5% CO2). The cell culture plate was then taken out, and cell scratches were made along the diameter of the wells using a 200 μL pipette tip. The cell culture plate was then added with 500 μL of serum-free medium and then shaken gently to wash away the residual cells on the scratched surface, and this was repeated twice. The medium was discarded and 500 μL of 1% FBS medium containing the compound was then added, and the mixture was incubated at 37° C. for 30 min. […] Olympus CKX53 was used to observe the scratches, and MShot image analysis system was used to take pictures and measure the scratch area at 0 h. The plate was incubated in the incubator under the conditions of 37° C. and 5% CO2. 24 h later, the scratches were observed again with Olympus CKX53, and MShot image analysis system was used to take pictures and measure the scratch area at 24 h. Cell migration inhibition rate was calculated according to the following formula: […]

[2] = In vitro cytotoxicity assay in HepG2 cells, CCK-8 method; details: human
Protocol: In vitro cytotoxicity assay for the compounds disclosed herein was performed in HepG2 cells using the CCK-8 method. HepG2 cells (Beina Bio) in the logarithmic growth phase were collected, the concentration of cell suspension was adjusted, and then the cells were plated on a 96-well cell culture plate at 50,000 cells/well. The cells were then incubated overnight in a cell incubator (5% CO2, 37° C.), and after 80-90% cell confluence was achieved, test compounds or vehicle (DMSO) at various concentration gradients were added after medium change. The resulting mixture was incubated in the cell incubator (5% CO2, 37° C.) for 48 h. After the treatment, the medium in the plate was discarded. The plate was washed twice with PBS, added with CCK-8 working solution (Beyotime) at 100 μL per well, and then incubated at 37° C. for 1.5 h away from the light. Absorbance at OD450 nm was measured for each well on a microplate reader, and CC50 value of each compound was analyzed and calculated.

[3] = target: hLPAR1 (human lysophosphatidic acid receptor 1) (Homo sapiens, UniProt Q92633); assay: FLIPR assay of intracellular calcium increase induced by activation of hLPAR1 expressed in CHO-K1 cells; details: CHO-K1 cells expressing hLPAR1, agonist oleoyl-L-α-lysophosphatidic acid 1 μM; read-out: LPAR1 IC50
Protocol: The antagonist property of the compounds disclosed herein was determined using the FLIPR (fluorescence imaging plate reader) method, wherein the compounds are inhibitors for the intracellular calcium increase induced by activation of hLPAR1 (human lysophosphatidic acid receptor 1, accession No. NM_001401.4) expressed in CHO-K1 cells (Chinese hamster ovary cells K1, ATCC).
Cells at 250,000 cells/mL were seeded into a 96-well plate (25,000 cells/well) 18-24 h prior to the FLIPR experiment and then incubated overnight in a cell incubator. […] Each well was added with 75 μL of […] Fluo-4 AM fluorescent dye (Thermo, F14202) and then the cells were subjected to dye-loading incubation at 37° C. for 1.0 h. The 96-well plate was then washed once with buffer, added with a buffer containing a test compound or a vehicle at 50 μL per well and then incubated for 30 min at room temperature. […] An agonist (oleoyl-L-α-lysophosphatidic acid sodium salt (Sigma, L7260)) at a final concentration of 1 μM or a vehicle (ultrapure water) was then added at 50 μL/well, fluorescence values were measured for 2 min at 1-second intervals, and finally the output fluorescence counts were analyzed.

Chain of hLPAR1 (human lysophosphatidic acid receptor 1) (Q92633 whole entry): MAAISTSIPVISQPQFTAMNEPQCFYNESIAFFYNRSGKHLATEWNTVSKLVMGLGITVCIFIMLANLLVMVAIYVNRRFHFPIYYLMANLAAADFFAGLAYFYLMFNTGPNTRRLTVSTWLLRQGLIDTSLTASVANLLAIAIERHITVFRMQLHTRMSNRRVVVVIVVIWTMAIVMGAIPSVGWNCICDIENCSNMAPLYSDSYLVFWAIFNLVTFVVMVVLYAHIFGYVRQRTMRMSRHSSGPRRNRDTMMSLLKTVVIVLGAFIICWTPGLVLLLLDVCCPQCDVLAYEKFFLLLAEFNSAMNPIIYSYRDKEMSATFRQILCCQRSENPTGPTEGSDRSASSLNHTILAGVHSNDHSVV

SMILES | IC50 [3] [nM] | Cell migration inhibition rate (%) [1] | CC50 at 48 h [2] [nM]
Cc1noc(-c2ccc(C3(C(=O)O)CC3)cc2)c1NC(=O)O[C@H](C)c1ccccc1 [Compound 3] | 300 to 10000 | C (C: 0-30%) | > 200000
Cc1nc(-c2cnn(C)c2COC(=O)N(C)C2CCOC2)ccc1O[C@H]1CCC[C@H](C(=O)O)C1 (mixture of isomers) [Compound 93] | 300 to 10000 | B (B: 30-50%) | –
CN(C(=O)OCc1c(-c2cnc(O[C@H]3CCC[C@H](C(=O)O)C3)c(N)n2)cnn1C)C1CCCC1 (racemic) [Compound 94, (+/−)-(1S,3S)-3-((3-amino-5-(5-(((cyclopentyl(methyl)carbamoyl)oxy)methyl)-1-methyl-1H-pyrazol-4-yl)pyrazin-2-yl)oxy)cyclohexane-1-carboxylic Acid] | 300 to 10000 | C (C: 0-30%) | –
Cc1noc(-c2ccc(O[C@H]3CCC[C@H](C(=O)O)C3)cn2)c1COC(=O)N(C)C1CC1 (racemic) [Compound 106] | 300 to 10000 | B (B: 30-50%) | –
CN(C(=O)OCc1c(-c2ccc(O[C@H]3CCC[C@H](C(=O)O)C3)c(O)n2)cnn1C)C1CCCC1 (racemic) [Compound 114, (+/−)-(1S,3S)-3-((6-(5-(((cyclopentyl(methyl)carbamoyl)oxy)methyl)-1-methyl-1H-pyrazol-4-yl)-2-hydroxypyridin-3-yl)oxy)cyclohexane-1-carboxylic Acid] | 300 to 10000 | C (C: 0-30%) | –
CN(C(=O)COc1c(-c2ccc(O[C@H]3CCC[C@H](C(=O)O)C3)c(N3CCOCC3)n2)cnn1C)C1CCC1 (racemic) [Compound 115] | 300 to 10000 | C (C: 0-30%) | –
Cc1nc(-c2cnn(C)c2COC(=O)N2CC3CCC(C2)O3)ccc1O[C@H]1CCC[C@H](C(=O)O)C1 (racemic) [Compound 65, (+/−)-(1R,3R)-3-((6-(5-(((8-oxa-3-azabicyclo[3.2.1]octane-3-carbonyl)oxy)methyl)-1-methyl-1H-pyrazol-4-yl)-2-methylpyridin-3-yl)oxy)cyclohexane-1-carboxylic Acid] | 300 to 10000 | C (C: 0-30%) | –
Cc1nc(-c2cnn(C)c2COC(=O)N(C)CC2CCOC2)ccc1O[C@H]1CCC[C@H](C(=O)O)C1 (mixture of isomers) [Compound 98, (+/−)-(1S,3S)-3-((2-methyl-6-(1-methyl-5-(((methyl((tetrahydrofuran-3-yl)methyl)carbamoyl)oxy)methyl)-1H-pyrazol-4-yl)pyridin-3-yl)oxy)cyclohexane-1-carboxylic Acid] | 300 to 10000 | C (C: 0-30%) | –
Cc1noc(-c2ccc(O[C@H]3CCC[C@H](C(=O)O)C3)cn2)c1COC(=O)N(C)C1CCCC1 (racemic) [Compound 35, (+/−)-(1S,3S)-3-((6-(4-(((cyclopentyl(methyl)carbamoyl)oxy)methyl)-3-methylisoxazol-5-yl)pyridin-3-yl)oxy)cyclohexane-1-carboxylic Acid] | – | B (B: 30-50%) | > 200000
CN(C(=O)OCc1c(-c2ccc(O[C@H]3CCC[C@H](C(=O)O)C3)c(N)n2)cnn1C)C1CCC1 (racemic) [Compound 113, (+/−)-(1S,3S)-3-((2-amino-6-(5-(((cyclobutyl(methyl)carbamoyl)oxy)methyl)-1-methyl-1H-pyrazol-4-yl)pyridin-3-yl)oxy)cyclohexane-1-carboxylic Acid] | 300 to 10000 | C (C: 0-30%) | –
Cc1nc(-c2cnn(C)c2COC(=O)N(C)CC2COC2)ccc1O[C@H]1CCC[C@H](C(=O)O)C1 (racemic) [Compound 97] | 300 to 10000 | C (C: 0-30%) | –

Continued, in another order:

IC50 [3] [nM] | SMILES | Cell migration inhibition rate (%) [1] | CC50 at 48 h [2] [nM]
< 50 | Cc1snc(-c2ccc(O[C@H]3CCC[C@H](C(=O)O)C3)cc2)c1COC(=O)N(C)C1CCCC1 (racemic) [Compound 29, (+/−)-(1S,3S)-3-(4-(4-(((cyclopentyl(methyl)carbamoyl)oxy)methyl)-5-methylisothiazol-3-yl)phenoxy)cyclohexane-1-carboxylic Acid] | B (B: 30-50%) | > 200000
< 50 | Cc1nc(-n2cnc(C)c2COC(=O)N(C)C2CCCC2)ccc1O[C@H]1CCC[C@H](C(=O)O)C1 (racemic) [Compound 54] | B (B: 30-50%) | > 200000
50 to 300 | CN(C(=O)OCc1c(-c2ccc(O[C@H]3CCC[C@H](C(=O)O)C3)c(C(F)(F)F)n2)ncn1C)C1CCCC1 (racemic) [Compound 32] | B (B: 30-50%) | > 200000
300 to 10000 | CN(C(=O)OCc1c(-c2ncc(O[C@H]3CCC[C@H](C(=O)O)C3)cn2)cnn1C)C1CCCC1 (racemic) [Compound 100, (+/−)-(1S,3S)-3-((2-(5-(((cyclopentyl(methyl)carbamoyl)oxy)methyl)-1-methyl-1H-pyrazol-4-yl)pyrimidin-5-yl)oxy)cyclohexane-1-carboxylic Acid] | B (B: 30-50%) | > 200000
< 50 | Cc1nc(-c2[nH]nc(C)c2COC(=O)N(C)C2CCCC2)ccc1O[C@H]1CCC[C@H](C(=O)O)C1 (racemic) [Compound 53] | A (A: 50-70%) | > 200000
< 50 | Cc1coc(-c2ccc(O[C@H]3CCC[C@H](C(=O)O)C3)c(C)n2)c1COC(=O)N(C)C1CCCC1 (racemic) [Compound 45] | A (A: 50-70%) | > 200000
50 to 300 | CN(C(=O)OCc1c(-c2ccc(O[C@H]3CCC[C@H](C(=O)O)C3)c(F)c2)ncn1C)C1CCCC1 (racemic) [Compound 34, (+/−)-(1S,3S)-3-(4-(5-(((cyclopentyl(methyl)carbamoyl)oxy)methyl)-1-methyl-1H-imidazol-4-yl)-2-fluorophenoxy)cyclohexane-1-carboxylic Acid] | B (B: 30-50%) | > 200000
< 50 | Cc1nc(-c2ccn(C)c2COC(=O)N(C)C2CCCC2)ccc1O[C@H]1CCC[C@H](C(=O)O)C1 (racemic) [Compound 55] | A (A: 50-70%) | > 200000
50 to 300 | COc1nn(C)c(COC(=O)N(C)C2CCCC2)c1-c1ccc(O[C@H]2CCC[C@H](C(=O)O)C2)c(C)n1 (racemic) [Compound 88, (+/−)-(1S,3S)-3-((6-(5-(((cyclopentyl(methyl)carbamoyl)oxy)methyl)-3-methoxy-1-methyl-1H-pyrazol-4-yl)-2-methylpyridin-3-yl)oxy)cyclohexane-1-carboxylic Acid] | C (C: 0-30%) | –
50 to 300 | CN(CC1CC1)C(=O)OCc1c(-c2ccc(O[C@H]3CCC[C@H](C(=O)O)C3)c(F)n2)cnn1C (racemic) [Compound 110, (+/−)-(1S,3S)-3-((6-(5-((((cyclopropylmethyl)(methyl)carbamoyl)oxy)methyl)-1-methyl-1H-pyrazol-4-yl)-2-fluoropyridin-3-yl)oxy)cyclohexane-1-carboxylic Acid] | B (B: 30-50%) | –
< 50 | CN(C(=O)OCc1c(-c2cnc(O[C@H]3CCC[C@H](C(=O)O)C3)c(Cl)n2)cnn1C)C1CCCC1 [Compound 105] | B (B: 30-50%) | –
< 50 | CN(C(=O)OCc1c(-c2cnc(O[C@H]3CCC[C@H](C(=O)O)C3)c(C#N)n2)cnn1C)C1CCCC1 (racemic) [Compound 104, (+/−)-(1S,3S)-3-((3-cyano-5-(5-(((cyclopentyl(methyl)carbamoyl)oxy)methyl)-1-methyl-1H-pyrazol-4-yl)pyrazin-2-yl)oxy)cyclohexane-1-carboxylic Acid] | C (C: 0-30%) | –
